Results published in patent US12570606B2, “Myeloperoxidase imaging agents” (The General Hospital Corporation, priority 2016, dated 2026).
Structures can show the parent of a compound that is named as a salt. Where two headings read alike, the source gives them in different places. One block for each compound: values may come before it.

What was measured:
[1] = test system: MPO activity; assay: Irritant contact dermatitis (PMA) in vivo FRI; design: species or system mouse
Description: Female C57Bl/6J (wildtype, Jackson laboratories, Bar Harbor, Me.) and MPO-knockout (KO, Jackson laboratories) mice were treated topically with 0.08 μmol Phorbol 12-myristate 13-acetate (PMA, Sigma, St. Louis, Mo.) on one hind-paw and with vehicle on the other to induce irritant contact dermatitis. This model is well described in the literature and triggers rapid inflammation with influx of neutrophils into the skin. 6 hours after induction, mice were injected intravenously with either 2 nmol of Compound 3 or the non-specific analogue, Compound 18. 1 hour later, 2.5 μg SA-647 was injected intravenously to bind to the biotinylated Compound 3. Mice underwent in vivo imaging using a dedicated in vivo FRI system as described above in Example 11.

[2] = biological target: T1, purified human MPO (Homo sapiens, UniProt P05164); assay: Fluorescence molecular tomography (FMT) of MPO embedded in matrigel, sensitivity; assay type: in vivo, mouse; conditions: 2 nmol i.v. then SA-647, matrigel in thigh
T1 construct: purchased Lee Biosolutions, St. Louis, Mo
T1 sequence (P05164 49-745): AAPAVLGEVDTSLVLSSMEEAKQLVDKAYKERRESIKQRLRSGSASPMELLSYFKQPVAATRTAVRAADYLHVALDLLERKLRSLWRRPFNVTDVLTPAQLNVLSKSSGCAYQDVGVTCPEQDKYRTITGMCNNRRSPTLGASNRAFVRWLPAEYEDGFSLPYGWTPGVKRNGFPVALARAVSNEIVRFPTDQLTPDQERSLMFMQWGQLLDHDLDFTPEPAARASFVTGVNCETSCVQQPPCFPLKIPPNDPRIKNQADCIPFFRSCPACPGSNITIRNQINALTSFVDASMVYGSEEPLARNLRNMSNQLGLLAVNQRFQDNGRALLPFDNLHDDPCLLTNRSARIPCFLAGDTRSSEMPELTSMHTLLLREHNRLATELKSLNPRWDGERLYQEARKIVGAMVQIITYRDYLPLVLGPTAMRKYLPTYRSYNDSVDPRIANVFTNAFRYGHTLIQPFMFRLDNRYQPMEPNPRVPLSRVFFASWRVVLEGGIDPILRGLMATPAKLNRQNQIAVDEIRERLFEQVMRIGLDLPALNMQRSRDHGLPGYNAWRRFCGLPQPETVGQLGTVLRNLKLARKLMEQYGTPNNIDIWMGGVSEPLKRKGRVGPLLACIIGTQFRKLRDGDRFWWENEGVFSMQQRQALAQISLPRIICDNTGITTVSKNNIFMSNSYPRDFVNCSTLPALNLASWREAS
From the text: (§1) Four to ten weeks old female C57BL/6J or MPO-knockout mice (from Jackson Laboratories, Bar Harbor, Me.) were used for all animal experiments. Mice were fed biotin free diet for 5 days before imaging with fluorescence molecular tomography (FMT) or fluorescence […] imaging (FRI).
To validate sensitivity of the Compound 3, different concentrations of purified human MPO (Lee Biosolutions, St. Louis, Mo.) and glucose oxidase (GOX, as a H2O2 donor, Affymetrix, Santa Clara, Calif.) were embedded in a mixture of matrigel (BD Bioscience, San Jose, Calif.) and minimal essential medium (MEM, Corning, Corning, N.Y.), and injected 400 μL of this mixture subcutaneously into the ventral aspect of the thigh. After 30 min, 2 nmol of Compound 3 in 100 μL phosphate buffered saline (PBS) was injected intravenously. One hour later, 25 μL of streptavidin AlexaFluor-647 (2 mg/mL, SA-647, Invitrogen, Carlsbad, Calif.) was injected intravenously, and FMT was performed every 15 minutes for a total of 60 minutes. Mice were imaged on a dedicated FMT system (Perkin Elmer, Waltham, Mass.) at 635 nm excitation and 655 nm emission.

[3] = biological target: T2, MPO (Mus musculus, UniProt P11247); assay: CNR of Compound 3 in dermatitis, CNS abscess and cellulitis models; assay type: in vivo; design: from tissue; conditions: detection of dermatitis
T2 sequence (P11247 139-718): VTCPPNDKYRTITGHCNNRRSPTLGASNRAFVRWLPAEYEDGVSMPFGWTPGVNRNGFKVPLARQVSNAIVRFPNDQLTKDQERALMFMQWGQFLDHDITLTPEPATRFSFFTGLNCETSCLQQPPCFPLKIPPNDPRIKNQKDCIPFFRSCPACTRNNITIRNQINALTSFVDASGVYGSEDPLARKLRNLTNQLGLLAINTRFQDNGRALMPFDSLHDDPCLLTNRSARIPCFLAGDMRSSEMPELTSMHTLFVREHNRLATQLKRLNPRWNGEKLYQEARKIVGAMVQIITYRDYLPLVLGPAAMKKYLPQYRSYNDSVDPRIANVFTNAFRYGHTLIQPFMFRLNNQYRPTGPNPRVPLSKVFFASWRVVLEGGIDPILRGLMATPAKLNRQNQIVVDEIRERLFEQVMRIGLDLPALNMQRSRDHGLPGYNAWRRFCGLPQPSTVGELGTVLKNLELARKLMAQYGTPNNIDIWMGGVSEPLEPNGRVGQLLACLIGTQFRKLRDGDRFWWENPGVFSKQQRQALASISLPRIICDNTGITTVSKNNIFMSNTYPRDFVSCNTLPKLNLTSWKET

[4] = biological target: T3, MPO (Homo sapiens, UniProt P05164); assay: Fluorescence reflectance imaging (FRI) of GOX/MPO/ABAH in matrigel, specificity; assay type: in vivo, mouse; conditions: 2 nmol i.v. then SA-647
T3 sequence (P05164 49-745): T1 sequence (P05164 49-745)
From the text: as §1

[5] = biological target: T4, MPO activity (Mus musculus, UniProt P11247); assay: Staining of fresh-frozen ex vivo brain sections with Compound 3 and SA-647; conditions: Compound 3 followed by SA-647
T4 construct: from tissue; host or cells: C57Bl/6J mice: PMA-treated hind-paw, salmonella brain abscess (slices and frozen sections), S. pneumoniae cellulitis of the thigh
T4 sequence (P11247 139-718): T2 sequence (P11247 139-718)
Description: (§2) Female C57Bl/6J mice were then anesthetized and fixed in a stereotactic head frame (David Kopf Instruments, Tujunga, Calif.). 1-3×10^6 colony forming units (CFU) salmonella bacteria (ATCC #14028) were suspended in 2 μL PBS and slowly injected into the deep frontal white matter (2.0 mm lateral and 1.2 mm anterior to bregma) at a depth of 3.0 mm. 23 hours later, mice were injected intravenously with 2 nmol Compound 3 as above, followed by intravenous injection of SA-647. Mice were then anesthetized with Isoflurane and transcardially perfused with 20 mL of ice cold PBS. Brains were harvested and cut into 1 mm coronal slices using a brain slicer (Harvard Apparatus, Holliston, Mass.) and immediately underwent FRI as described above. Brains from mice injected with salmonella were also embedded in OCT (Sakura, Torrance, Calif.) and snap-frozen in chilled isopentane (Sigma) and stored at […] until sectioning. Serial 6 μm sections were cut on a cryostat (Thermo scientific). Sections were thawed at room temperature for 10-20 minutes and rehydrated in PBS for 10 minutes. Then sections were incubated in blocking buffer (1% horse serum in PBS) for 30 minutes at room temperature, and incubated with MPO specific probe diluted in incubation buffer (1% bovine serum albumin 1% normal donkey serum, 0.3% Triton X-100, and 0.01% sodium azide in PBS) overnight at 4° C. […]

[6] = biological target: T4, MPO activity; assay: Bacterial cellulitis (Streptococcus pneumoniae), in vivo FRI of neutrophil extracellular traps
Description: Female C57Bl/6J mice were injected subcutaneously at the dorsal aspect of the thigh with 10^8 CFU of Streptococcus pneumonia (SPn, ATCC #6303) to induce bacterial cellulitis. 6 hours after induction, mice were injected intravenously with 2 nmol of […]. 1 hour later, 2.5 μg Strepavidin-AlexaFluor-647 were injected intravenously to bind to the biotinylated Compound 3. To distinguish neutrophil granule release (where MPO and other granule proteins are secreted into the phagosome or extracellular space) from NET formation (where chromatin strands with MPO are released by neutrophils), 1 μg of the membrane-impermeable DNA dye Sytox Green (Invitrogen) was injected intravenously at the same time. Mice then underwent in vivo imaging using a dedicated FRI system as described above in Example 11. AlexaFluor-647 bound to MPO-sensor was detected at 595-635 nm excitation and 675/50 nm emission. Sytox Green was detected at 460-490 nm excitation and 530/40 nm emission.

[7] = biological target: T4, MPO activity; assay: Brain abscess (salmonella), ex vivo FRI of coronal brain slices; assay type: in vivo; conditions: probe at 23 hours
Description: as §2

[8] = biological target: T3, MPO; assay: In vitro color change (oligomerization) with MPO; assay type: biochemical; conditions: 2 mM, 37° C., 1 hr
Description: (§3) Each vial contains 2 mM of ^19F compound 9 in PBS (150 uL, 5% DMSO) and the following agents, and was incubated at 37° C. for 1 hr: • Vial 1: control (2 mM 19F […] only) • Vial 2: Glucose (6 μL, 1M), GOX (4 μL, 1 mg/mL); • Vial 3: H2O2 (2 μL), HRP (horseradish peroxidase, 1 μL); • Vial 4: H2O2(2 μL), MPO (10 μL): • Vial 5: H2O2 (2 μL), MPO (10 μL);

[9] = test system: HRP (horseradish peroxidase); assay: In vitro color change (oligomerization) with horseradish peroxidase; assay type: biochemical; conditions: Vial 3: H2O2, HRP; 2 mM, 37° C., 1 hr
Description: as §3

[10] = Solubility of the hydrochloric acid salt; assay type: physicochemical; conditions: hydrochloric acid salt after Boc de-protection with 1M HCl
[11] = biological target: T3, MPO; design: host or cells: transgenic mice overexpressing human MPO; conditions: in vivo, transgenic mice with overexpression of human MPO; cited from earlier work
[12] = biological target: T3, MPO; conditions: in vitro; cited from earlier work

Compound: O=C(CCCC[C@@H]1SC[C@@H]2NC(=O)N[C@@H]21)N[C@@H](Cc1c[nH]c2ccc(O)cc12)C(=O)NCCc1c[nH]c2ccc(O)cc12 [Compound 3, N—((S)-3-(5-hydroxy-1H-indol-3-yl)-1-((2-(5-hydroxy-1H-indol-3-yl)ethyl)amino)-1-oxopropan-2-yl)-5-((3aS,4S,6aR)-2-oxohexahydro-1H-thieno[3,4-d]imidazol-4-yl)pentanamide]
Fluorescence intensity, PMA-treated hind-paw ([1]; MPO-KO mice): 36.9±9.8 RFU
Fluorescence intensity, vehicle-treated hind-paw ([1]; MPO-KO mice): 43.9±10.8 RFU
Fluorescence intensity, PMA-treated hind-paw ([1]; wildtype mice): 130.5±4.7 RFU
Fluorescence intensity, vehicle-treated hind-paw ([1]; wildtype mice): 34.4±8.6 RFU
FMT fluorescence signal versus MPO concentration [2]: linear increase in signal
CNR [3]: approximately 4
FRI fluorescence signal in absence of both MPO and GOX [4]: no appreciable fluorescence
FRI fluorescence signal with MPO and GOX in matrigel [4]: increased fluorescent signal
FRI fluorescence signal with MPO but without GOX [4]: no fluorescence was detectible
Fluorescent signal on abscess and control sections [5]: increased fluorescent signal consistent with MPO activity in the ipsilateral hemisphere but not the contralateral hemisphere
Fluorescence signal, side injected with PBS ([6]; contralateral thigh): 49.4±15.5 RFUs
Fluorescence signal, side injected with SPn ([6]; thigh, 6 hours after induction): 212.5±22.9 RFU
Fluorescence intensity, contralateral hemisphere (mean value) [7]: 10972 RFU
Fluorescence intensity, ipsilateral hemisphere (mean value) [7]: 43242 RFU

Color change ([8]; Vial 2: Glucose, GOX, no MPO): no color change
Color change ([8]; Vials 4 and 5: H2O2, MPO): turned to yellow or brown
Color change [9]: turned to yellow or brown
Compound: O=C(Cc1c[nH]c2ccc(O)cc12)N[C@@H](Cc1c[nH]c2ccc(O)cc12)C(=O)NCCOCCOCCF [Compound 8, (S)—N-(2-(2-(2-fluoroethoxy)ethoxy)ethyl)-3-(5-hydroxy-1H-indol-3-yl)-2-(2-(5-hydroxy-1H-indol-3-yl)acetamido)propanamide]

Solubility [10]: increased solubility
Compound: CN(C)CCCC[C@H](NC(=O)[C@H](Cc1c[nH]c2ccc(O)cc12)NC(=O)Cc1c[nH]c2ccc(O)cc12)C(=O)NCCOCCOCC[18F] [Example 18, (S)-6-(dimethylamino)-N-(2-(2-(2-fluoro-^18F)ethoxy)ethoxy)ethyl)-2-((S)-3-(5-hydroxy-1H-indol-3-yl)-2-(2-(5-hydroxy-1H-indol-3-yl)acetamido)propanamido)hexanamide hydrochloric acid salt]

Compound: sulfonaphthoaminophenyl fluorescein [SNAPF]
CNR [11]: ~1.6
CNR [12]: around 1.4
